Experimental data: ChEMBL document CHEMBL5143688, “A kind of HIV-1 protease inhibitors containing phenols with antiviral activity against DRV-resistant variants” (Bioorg Med Chem, 2022)

How the values were obtained:
[1] = target: Human immunodeficiency virus type 1 protease (Human immunodeficiency virus 1, UniProt Q72874); experiment: Inhibition of HIV1 protease expressed in Escherichia coli using Arg-Glu (EDANS)-Ser-Gln-Asn-Tyr-Pro-Ile-Val-Gln-Lys(DABCYL)-Arg as substrate preincubated for 20 to 30 mins followed by substrate addition and measured for 10 mins by FRET assay
[2] = Cytotoxicity against HEK293T cells assessed as reduction in cell viability measured after 24 hrs by CCK8 assay; assay type: toxicity, cell-based, HEK-293T; conditions: human
[3] = test system: HIV1 protease; experiment: Selectivity index, ratio of CC50 for HEK293T cells to IC50 for inhibition of HIV1 protease expressed in Escherichia coli; assay type: toxicity; conditions: human, read-out: Ratio CC50/IC50
[4] = test system: Human immunodeficiency virus 1; experiment: Antiviral activity against HIV1 NL4-3 VSV-G pseudotyped virus infected in human SUP-T1 cells assessed as inhibition of late stage viral production at 10 uM pretreated for 48 hrs followed by viral infection and measured after 48 hrs by luciferase assay relative to control; assay type: functional; conditions: Human immunodeficiency virus 1, NL4-3, SUP-T1, time 96 hrs
[5] = test system: Human immunodeficiency virus 1; experiment: Antiviral activity against HIV1 NL4-3 VSV-G pseudotyped virus infected in human SUP-T1 cells assessed as inhibition of early stage viral production at 10 uM measured after 48 hrs by luciferase assay relative to control; assay type: functional; conditions: Human immunodeficiency virus 1, NL4-3, SUP-T1
[6] = test system: Human immunodeficiency virus 1; experiment: Antiviral activity against wild-type HIV1 NL4-3 VSV-G pseudotyped virus infected in human SUP-T1 cells assessed as inhibition of late stage viral production pretreated with viral infected SUP-T1 cells for 48 hrs followed by reinfection in TZM-bl cells by luciferase reporter gene assay; assay type: functional, organism-based; conditions: Human immunodeficiency virus 1, NL4-3, SUP-T1
[7] = test system: Human immunodeficiency virus 1; experiment: Antiviral activity against DRV-resistant HIV1 NL4-3 VSV-G pseudotyped virus infected in human SUP-T1 cells assessed as inhibition of late stage viral production pretreated for 48 hrs followed by viral infection and measured after 48 hrs by luciferase assay; assay type: functional, organism-based; conditions: Human immunodeficiency virus 1, NL4-3, SUP-T1
[8] = Selectivity ratio of EC50 for antiviral activity against DRV-resistant HIV1 NL4-3 VSV-G pseudotyped virus infected in human SUP-T1 cells to EC50 for antiviral activity against wild-type HIV1 NL4-3 VSV-G pseudotyped virus infected in human SUP-T1 cells; assay type: functional, Human immunodeficiency virus 1
[9] = test system: Human immunodeficiency virus 1; experiment: Antiviral activity against HIV1 NL4-3 VSV-G pseudotyped virus infected in human SUP-T1 cells assessed as inhibition of late stage viral production at 100 nM pretreated for 48 hrs followed by viral infection and measured after 48 hrs by luciferase assay relative to control; assay type: functional; conditions: Human immunodeficiency virus 1, NL4-3, SUP-T1, time 96 hrs

| SMILES | IC50 [1] | CC50 at 24 h [2] | selectivity ratio [3] | further results |
| --- | --- | --- | --- | --- |
| COc1cc(O)c(C(=O)N[C@@H](Cc2ccccc2)[C@H](O)CN(CC(C)C)S(=O)(=O)c2ccc(F)cc2)cc1OC | 11.5 nM |  |  |  |
| CC(C)CN(C[C@@H](O)[C@H](Cc1ccccc1)NC(=O)c1cc(O)cc(O)c1)S(=O)(=O)c1ccc(C(F)(F)F)cc1 | 0.078 nM | > 100000 nM | > 1.28e+06 |  |
| CC(C)CN(C[C@@H](O)[C@H](Cc1ccccc1)NC(=O)c1ccccc1O)S(=O)(=O)c1ccc(C(F)(F)F)cc1 | 23 nM |  |  |  |
| COc1ccc(C(=O)N[C@@H](Cc2ccccc2)[C@H](O)CN(CC(C)C)S(=O)(=O)c2ccc(C(F)(F)F)cc2)c(O)c1 | 16.2 nM |  |  |  |
| CC(C)CN(C[C@@H](O)[C@H](Cc1ccccc1)NC(=O)c1ccc(Cl)cc1O)S(=O)(=O)c1ccc(C(F)(F)F)cc1 | 6.23 nM |  |  |  |
| CC(C)CN(C[C@@H](O)[C@H](Cc1ccccc1)NC(=O)c1ccc(Cl)cc1O)S(=O)(=O)c1ccc([N+](=O)[O-])cc1 | 9.99 nM |  |  |  |
| COc1cc(O)c(C(=O)N[C@@H](Cc2ccccc2)[C@H](O)CN(CC(C)C)S(=O)(=O)c2ccc([N+](=O)[O-])cc2)cc1OC | 13.7 nM |  |  |  |
| COc1ccc(C(=O)N[C@@H](Cc2ccccc2)[C@H](O)CN(CC(C)C)S(=O)(=O)c2ccc([N+](=O)[O-])cc2)c(O)c1 | 12.7 nM |  |  |  |
| CC(C)CN(C[C@@H](O)[C@H](Cc1ccccc1)NC(=O)c1cc(O)cc(O)c1)S(=O)(=O)c1ccc(F)cc1 | 0.021 nM | > 100000 nM | > 4.76e+06 | inhibition at 10 µM [4]: 100%; inhibition at 10 µM [5]: 2.6%; EC50 [6]: 740 nM; EC50 [7]: 610 nM; Ratio EC50 [8]: 0.82 |
| COc1ccc(C(=O)N[C@@H](Cc2ccccc2)[C@H](O)CN(CC(C)C)S(=O)(=O)c2ccc(F)cc2)c(O)c1 | 8.34 nM |  |  | inhibition at 10 µM [4]: 82.2% |
| CC(C)CN(C[C@@H](O)[C@H](Cc1ccccc1)NC(=O)c1ccccc1O)S(=O)(=O)c1ccc(F)cc1 | 2.04 nM | > 100000 nM | > 49000 | inhibition at 10 µM [4]: 92.6% |
| COc1cc(C(=O)N[C@@H](Cc2ccccc2)[C@H](O)CN(CC(C)C)S(=O)(=O)c2ccc(C(F)(F)F)cc2)cc(OC)c1O | 8.27 nM |  |  |  |
| CC(C)CN(C[C@@H](O)[C@H](Cc1ccccc1)NC(=O)c1ccc(O)cc1O)S(=O)(=O)c1ccc([N+](=O)[O-])cc1 | 2.42 nM | > 100000 nM | > 41300 |  |
| CC(C)CN(C[C@@H](O)[C@H](Cc1ccccc1)NC(=O)c1ccc(O)c(O)c1)S(=O)(=O)c1ccc([N+](=O)[O-])cc1 | 0.25 nM | 35600 nM | 142000 |  |
| COc1cc(O)c(C(=O)N[C@@H](Cc2ccccc2)[C@H](O)CN(CC(C)C)S(=O)(=O)c2ccc(C(F)(F)F)cc2)cc1OC | 11.4 nM |  |  |  |
| COc1cc(C(=O)N[C@@H](Cc2ccccc2)[C@H](O)CN(CC(C)C)S(=O)(=O)c2ccc([N+](=O)[O-])cc2)cc(OC)c1O | 0.79 nM | > 100000 nM | > 127000 |  |
| CC(C)CN(C[C@@H](O)[C@H](Cc1ccccc1)NC(=O)c1cc(O)c(O)c(O)c1)S(=O)(=O)c1ccc(C(F)(F)F)cc1 | 0.33 nM | > 100000 nM | > 303000 |  |
| CC(C)CN(C[C@@H](O)[C@H](Cc1ccccc1)NC(=O)c1ccc(Cl)cc1O)S(=O)(=O)c1ccc(F)cc1 | 6.94 nM |  |  | inhibition at 10 µM [4]: 97.4% |
| CC(C)CN(C[C@@H](O)[C@H](Cc1ccccc1)NC(=O)c1cc(O)c(O)c(O)c1)S(=O)(=O)c1ccc([N+](=O)[O-])cc1 | 0.73 nM | > 100000 nM | > 137000 |  |
| CC(C)CN(C[C@@H](O)[C@H](Cc1ccccc1)NC(=O)c1cc(O)cc(O)c1)S(=O)(=O)c1ccc([N+](=O)[O-])cc1 | 0.065 nM | 86900 nM | 1.34e+06 |  |
| CC(C)CN(C[C@@H](O)[C@H](Cc1ccccc1)NC(=O)c1ccc(O)cc1O)S(=O)(=O)c1ccc(F)cc1 | 0.63 nM | > 100000 nM | > 159000 | inhibition at 10 µM [4]: 99.4% |
| CC(C)CN(C[C@@H](O)[C@H](Cc1ccccc1)NC(=O)c1ccc(O)c(O)c1)S(=O)(=O)c1ccc(C(F)(F)F)cc1 | 0.077 nM | 38200 nM | 496000 |  |
| CC(C)CN(C[C@@H](O)[C@H](Cc1ccccc1)NC(=O)O[C@H]1CO[C@H]2OCC[C@H]21)S(=O)(=O)c1ccc(N)cc1 |  |  |  | EC50 [6]: 2.5 nM; EC50 [7]: 100 nM; inhibition at 0.1 µM [9]: 100% |
| COc1cc(C(=O)N[C@@H](Cc2ccccc2)[C@H](O)CN(CC(C)C)S(=O)(=O)c2ccc(F)cc2)cc(OC)c1O | 0.32 nM | > 100000 nM | > 312000 | inhibition at 10 µM [4]: 84.2% |
| CC(C)CN(C[C@@H](O)[C@H](Cc1ccccc1)NC(=O)c1ccccc1O)S(=O)(=O)c1ccc([N+](=O)[O-])cc1 | 13.3 nM |  |  |  |
| CC(C)CN(C[C@@H](O)[C@H](Cc1ccccc1)NC(=O)c1ccc(O)c(O)c1)S(=O)(=O)c1ccc(F)cc1 | 0.075 nM | 57600 nM | 768000 | inhibition at 10 µM [4]: 100%; inhibition at 10 µM [5]: 12.5%; EC50 [6]: 360 nM; EC50 [7]: 2180 nM; Ratio EC50 [8]: 6.06 |
| CC(C)CN(C[C@@H](O)[C@H](Cc1ccccc1)NC(=O)c1ccc(O)cc1O)S(=O)(=O)c1ccc(C(F)(F)F)cc1 | 8.82 nM |  |  |  |
